According to patent US20210161894A1, “Compositions and Methods for Modulating Liver Endothelial Cell Fenestrations” (priority 2017, published 2021):
“Also recorded” adds a separate entry of the source.

Columns and labels:
[1] = tested on: lipid rafts and fenestrations of LSECs; assay: 3D-SIM study of lipid rafts and fenestrations; format: cell-based
Text: Sieve plates containing fenestrations are intercalated between thickened areas of membrane (lipid rafts).

[2] = tested on: isolated LSECs (liver sinusoidal endothelial cells); assay: SEM of fenestrations in isolated LSECs from young and old mice after 30 min drug treatment (second Example 7); format: cell-based; conditions: for Diameter / Frequency / Porosity: 30 min; for effect on porosity and fenestration frequency (summary in words): young and old LSECs
Description: 3-4 and 18-24 month old male C57/B16 mice were obtained from the Animal Resource Centre in Perth, Western Australia. Animals were housed at the ANZAC Research Institute animal house on a 12 hour light/dark cycle and provided with ad libitum access to food and water. Mice were not fasted prior to euthanasia by a single intraperitoneal injection with 100 mg/kg ketamine and 10 mg/kg xylazine in saline. The study was approved by the Animal Welfare Committee of the Sydney Local Health District and was performed in accordance with the Australian Code of Practice for the care and use of animals for scientific research (AWC 2016/009). All information provided accords with the ARRIVE guidelines.
As described previously (Cogger et al. J e52698, 2015 https://dx.doi.org/10.3791/52698), mouse LSEC isolation was performed by perfusion of the liver with collagenase. Non-parenchymal cells were removed by a two-step Percoll gradient and Kupffer cells were removed by selective adherence to plastic. LSECs (seeded at 0.5×10^6 cells/cm2) were cultured (37° C., 5% CO2) in serum free RPMI-1640 for 3.5 hours before use.
Cells were treated with various agents for 30 minutes to determine effects on fenestrations. All agents were dissolved in serum-free RPMI media. All experiments were performed in triplicate for both young and old mice. Actin was disrupted with 0.5 μg/ml cytochalasin D and lipid rafts were disrupted with 3.6 and 1.8 μg/ml 7-keocholesterol; dosages were selected. […] The serotonergic/phospholipase C pathway was promoted with DOI (0.1 μg/ml) and endothelin receptors were inhibited by bosentan (550, 55 and 5.5 ng/ml) Death receptor 4 was promoted with TRAIL (100, 10. 1, 0.1 and 0.01 ng/ml) and NAD+ was promoted with NMN (5000, 50, 10, 1 and 0.1 μg/ml).
SEM was performed as previous described (Corbin et al J Biol Chem 274: 13729-13732, 1999.). LSECs were fixed in 2.5% glutaraldehyde in 0.1M sodium cacodylate buffer, osmicated, dehydrated in graded ethanol and hexamethyl disilazane, mounted on stubs, sputter coated with platinum and examined using a JEOL 6380 Scanning Electron Microscope (JEOL Ltd, Japan). Images at 10,000× magnification were collected by a blinded observer and used to measure fenestration diameter and LSEC porosity using Image J (NIH, MD, USA). […] Fenestrations less than 30 nm and gaps more than 300 nm were excluded from analysis. Porosity was defined as the percentage of the cell membrane covered with fenestrations. Frequency was defined at the number of fenestrations per […].
Individual specifications of analyses are described in figures legends. All data are presented as mean±SD. Experimental design and analysis were performed in accordance with the APS guidelines described in Curran-Everett and Benos DJ. Adv Physiol Educ 31: 295-298, 2007.

[3] = tested on: LSEC fenestrations; assay: SEM of LSEC fenestrations after drug treatments (Example 2, FIGS. 1-6); format: cell-based, mice; conditions: for change in fenestration diameter: Bosentan 0.1 μM, Sildenafil 300 ng/ml, TRAIL 1 μg/ml; for sieve plates and fenestration density on SEM images: young and old mice
Text: Young and old C57B16 mice (n=3 young mice, age 3-4 and n=3 old mice, 20-24 months) were maintained under full SPF conditions and with ad libitum feeding. The study had the approval of the Sydney South West Area Health Service Animal Welfare Committee. Mice at 20-24 months are senescent. Animals were sacrificed withCO2 and livers immediately perfusion-fixed via a 23G needle inserted into the portal vein. Liver tissue was fixed with1% glutaraldehyde/4% para-formaldehyde in PBS (0.1M sucrose).
Drug treatments and dosages (shown superimposed on their corresponding image in FIGS. 1, and 2) were performed by incubating liver cells at 37° C., 5% CO2 for 30 mins using RPMI with or without dissolved drug. All images were taken by two blinded researchers using a SEM at 10,000×, scale bars of 1 μm are shown.
Each data point represents the average±SD of 8 images (as shown in FIGS. 1 and 2), 616-3312 fenestration raw data points were collected per treatment.

[4] = tested on: actin cytoskeleton of LSECs; assay: dSTORM imaging of the actin cytoskeleton; format: cell-based; conditions: young mice
Description: dSTORM imaging was performed using an in-house microscope. LSECs were prepared for dSTORM by washing twice with PBS and fixation with 4% paraformaldehyde for 30 mins. Then LSECs were washed twice with PBS, permeabilised with Triton-X for 90 secs, blocked with 5% bovine serum albumin for 1 hour, and stained with Alexa Flour phalloidin 488 (1:40) for 20 min prior to imaging. Cells were washed using PBS with 0.1% Tween and placed in OxEA buffer (30) for dSTORM visualisation and image capture. The dSTORM used 488 and 647 nm excitation from diode-pumped lasers (Coherent Inc, CA, USA). Excitation was delivered via a 1.49NA 60× oil-immersion TIRF objective (Olympus Australia, AUS). Fluorescence was captured on two separate sCMOS cameras (Imaging Development Systems GmbH, Germany). Data was collected for up to 40,000 images at around 75 fps. 5-8 whole cell images were collected by a blinded observer for each treatment dosage and processed using rapidSTORM open source software (Wolter et al. Nat Methods 9: 1040, 2012.). Each image was examined for all sieve plates and actin structures. Densitometry measurements were performed using 5-8 dSTORM images with data analysis performed using Image J software (NIH, MD, USA).

[5] = tested on: Intracellular cGMP; assay: Cyclic GMP ELISA; format: cell-based, mice; conditions: p=0.001
Description: Assays for MTT and cGMP were performed as instructed by the kit. Briefly, MTT assays were performed following drug treatments. Cells were washed with PBS and incubated with RPMI media containing […] MTT solution. Cells were incubated at 37° C. for 4 hrs and lysed with […] solubilisation solution, 30 mins colour development followed and measured at 570 nm using a spectrophotometer. cGMP assays were also performed after drug treatments. Cells were washed with PBS and lysed with 0.1M HCl. Following sample collection the sample was acetylated and prepared with kit reagents. Samples were incubated for 18 hrs at 4° C. before examination at 410 nm with a spectrophotometer.

VEGF
effect on fenestrations and lipid rafts [1]: depleted lipid rafts and increased fenestrations

CCOC(=O)C1=C(COCCN)NC(C)=C(C(=O)OC)C1c1ccccc1Cl (stereo not shown) [Amlodipine, amlodipine]
Diameter ([2]; old mice, 5 ng/ml): 119.67 ± 22.63 nm | Frequency ([2]; old mice, 5 ng/ml): 3.56 ± 1.07 no/area | Porosity ([2]; old mice, 5 ng/ml): 4.44 ± 0.29 % | Change in Frequency, Old ([2]; old mice, 20 ng/ml): ↑ (ns) | Change in Porosity, Old ([2]; old mice, 20 ng/ml): ↑ (ns) | Diameter ([2]; old mice, 20 ng/ml): 125.00 ± 13.36 nm | Frequency ([2]; old mice, 20 ng/ml): 3.00 ± 0.66 no/area | Porosity ([2]; old mice, 20 ng/ml): 3.98 ± 0.48 % | Diameter ([2]; young mice, 5 ng/ml): 125.87 ± 9.30 nm | Frequency ([2]; young mice, 5 ng/ml): 3.47 ± 1.00 no/area | Porosity ([2]; young mice, 5 ng/ml): 4.73 ± 0.80% | Diameter ([2]; young mice, 20 ng/ml): 123.66 ± 1.18 nm | Frequency ([2]; young mice, 20 ng/ml): 4.67 ± 0.65 no/area | Porosity ([2]; young mice, 20 ng/ml): 6.44 ± 1.14 % | fenestration diameter ([3]; young mice, 20 ng/ml): 123.8±1.6 nm

COc1ccccc1Oc1c(NS(=O)(=O)c2ccc(C(C)(C)C)cc2)nc(-c2ncccn2)nc1OCCO [Bosentan, bosentan]
Diameter ([2]; old mice, 5.5 ng/ml): 131.03 ± 16.29 nm | Frequency ([2]; old mice, 5.5 ng/ml): 3.14 ± 0.35 no/area | Porosity ([2]; old mice, 5.5 ng/ml): 4.53 ± 0.59 % | Diameter ([2]; old mice, 55 ng/ml): 121.14 ± 23.80 nm | Frequency ([2]; old mice, 55 ng/ml): 2.31 ± 1.03 no/area | Porosity ([2]; old mice, 55 ng/ml): 3.21 ± 0.36% | Diameter ([2]; old mice, 550 ng/ml): 118.64 ± 4.36 nm | Frequency ([2]; old mice, 550 ng/ml): 1.46 ± 0.54 no/area | Porosity ([2]; old mice, 550 ng/ml): 1.86 ± 0.72% | effect on porosity and fenestration frequency (summary in words) [2]: LSECs from old mice only were responsive | Diameter ([2]; young mice, 5.5 ng/ml): 129.55 ± 5.46 nm | Frequency ([2]; young mice, 5.5 ng/ml): 3.66 ± 0.30 no/area | Porosity ([2]; young mice, 5.5 ng/ml): 5.18 ± 0.45% | Diameter ([2]; young mice, 55 ng/ml): 132.12 ± 9.03 nm | Frequency ([2]; young mice, 55 ng/ml): 3.20 ± 1.23 no/area | Porosity ([2]; young mice, 55 ng/ml): 4.48 ± 1.12% | Diameter ([2]; young mice, 550 ng/ml): 133.73 ± 9.03 nm | Frequency ([2]; young mice, 550 ng/ml): 2.30 ± 0.04 no/area | Porosity ([2]; young mice, 550 ng/ml): 3.66 ± 0.41% | actin changes with drug treatments (dSTORM) [4]: Stress fibres; also recorded: Fused actin structure; also recorded: Individual fenestrations | fenestration porosity ([3]; old mice, 0.1 μM): 4.2±0.4% | change in fenestration diameter ([3]; old mice, 7KC 4.5 μM): No changes | sieve plates and fenestration density on SEM images [3]: maintained sieve plates and increased fenestration density | fenestration porosity ([3]; young mice, 0.1 μM): 5.4±0.1% | change in fenestration diameter ([3]; young mice): No changes

Triton X-100
effect on fenestrations and lipid rafts [1]: decreased fenestrations and increased rafts

CCCc1nn(C)c2c(=O)[nH]c(-c3cc(S(=O)(=O)N4CCN(C)CC4)ccc3OCC)nc12 [Sildenafil, sildenafil]
Diameter ([2]; old mice, 0.3 μg/ml): 138.91 ± 13.05 nm | Frequency ([2]; old mice, 0.3 μg/ml): 3.41 ± 0.68 no/area | Porosity ([2]; old mice, 0.3 μg/ml): 5.49 ± 1.33 % | Diameter ([2]; old mice, 0.6 μg/ml): 143.69 ± 10.80 nm | Frequency ([2]; old mice, 0.6 μg/ml): 2.88 ± 01.16 no/area | Porosity ([2]; old mice, 0.6 μg/ml): 4.97 ± 1.34 % | effect on porosity and fenestration frequency (summary in words) [2]: significant increases in porosity and fenestration frequency in both young and old LSECs | dose response on fenestration porosity (words) ([2]; young mice): limited dosage range for positive effects on fenestration porosity | Diameter ([2]; young mice, 0.3 μg/ml): 126.34 ± 16.36 nm | Frequency ([2]; young mice, 0.3 μg/ml): 4.54 ± 0.34 no/area | Porosity ([2]; young mice, 0.3 μg/ml): 6.34 ± 2.09 % | Diameter ([2]; young mice, 0.6 μg/ml): 130.33 ± 16.02 nm | Frequency ([2]; young mice, 0.6 μg/ml): 3.56 ± 0.61 no/area | Porosity ([2]; young mice, 0.6 μg/ml): 4.92 ± 0.35% | dose response on fenestration porosity (words) ([2]; young mice, listed as sildenafil): did not promote greater changes in fenestration porosity or frequency | fenestration numbers, fenestrated cell area and sieve plate formation ([2]; young mice, sildenafil 0.3 μg/ml, amlodipine 20 ng/ml, TRAIL 1 ng/ml): increased fenestration numbers and overall fenestrated cell area with some disruption to sieve plate formation | actin changes with drug treatments (dSTORM) [4]: disordered, dense actin staining in the plasma membrane and clustering of actin within the cytoplasm; also recorded: Disordered actin structure; also recorded: Gap formations; also recorded: Individual fenestrations | actin changes with drug treatments (dSTORM) ([4]; listed as sildenafil): loss of smooth fibres encircling the cytoplasm | increase of intracellular cGMP [5]: 3 fold | fenestration porosity ([3]; old mice, 300 ng/ml): 5.4±1.9% | change in fenestration diameter ([3]; old mice, 7KC 4.5 μM): No changes | sieve plates and fenestration density on SEM images [3]: maintained sieve plates and increased fenestration density | fenestration porosity ([3]; young mice, 300 ng/ml): 7.1±2.2% | change in fenestration diameter ([3]; young mice): No changes

CCC(C)(C)C(=O)O[C@H]1C[C@@H](C)C=C2C=C[C@H](C)[C@H](CC[C@@H]3C[C@@H](O)CC(=O)O3)[C@H]21 [Simvastatin, simvastatin]
Change in Diameter, Old ([2]; old mice, 0.1 μg/ml): ↑ (ns) | Diameter ([2]; old mice, 0.1 μg/ml): 147.47 ± 6.47 nm | Frequency ([2]; old mice, 0.1 μg/ml): 1.89 ± 0.74 no/area | Change in Diameter, Old ([2]; old mice, 1 μg/ml): ↑ (ns) | Diameter ([2]; old mice, 1 μg/ml): 145.96 ± 6.55 nm | Frequency ([2]; old mice, 1 μg/ml): 1.88 ± 0.86 no/area | Diameter ([2]; young mice, 0.1 μg/ml): 144.35 ± 18.95 nm | Frequency ([2]; young mice, 0.1 μg/ml): 2.42 ± 0.55 no/area | Porosity ([2]; young mice, 0.1 μg/ml): 4.05 ± 0.41% | Diameter ([2]; young mice, 1 μg/ml): 126.55 ± 9.64 nm | Frequency ([2]; young mice, 1 μg/ml): 2.83 ± 0.51 no/area | Porosity ([2]; young mice, 1 μg/ml): 3.99 ± 0.55% | fenestration diameter ([3]; old mice, both Simvastatin treatments): 152.0±19.2 nm
